Measured values taken from US20100062068A1, “CISTUS EXTRACTS” (KREWEL […], priority 2007, published 2010).
Like-named read-outs stand apart in the source and are kept apart here.

Assay: Storage stability of nasal sprays with preservatives
Source text: As the preservative, for example, benzalkonium chloride, which is often employed in the field of nasal drops, may be used. […] In addition to the free acids as such, their partially or completely neutralized salts may also be added to the nasal sprays.

| Structure (SMILES) | storage stability of the nasal spray (preservative in nasal spray, compared to benzalkonium chloride) | storage stability of the nasal spray |
| --- | --- | --- |
| O=C(O)c1ccccc1 [benzoic acid] | significant extension of the storage stability | – |
| C/C=C/C=C/C(=O)O [sorbic acid] | – | significant extension of the storage stability |
